# Experimental data taken from ChEMBL document CHEMBL2429821, “A Casein kinase 1/Checkpoint kinase 1 pyrazolo-pyridine protein kinase inhibitor as novel activator of the p53 pathway” (Bioorg Med Chem Lett, 2013).
# Experiments:
# [1] = target: T1, Eukaryotic elongation factor 2 kinase (Homo sapiens) (UniProt O00418); assay: Inhibition of human EF2K assessed as residual activity at 1 uM relative to control
# T1 sequence (whole entry): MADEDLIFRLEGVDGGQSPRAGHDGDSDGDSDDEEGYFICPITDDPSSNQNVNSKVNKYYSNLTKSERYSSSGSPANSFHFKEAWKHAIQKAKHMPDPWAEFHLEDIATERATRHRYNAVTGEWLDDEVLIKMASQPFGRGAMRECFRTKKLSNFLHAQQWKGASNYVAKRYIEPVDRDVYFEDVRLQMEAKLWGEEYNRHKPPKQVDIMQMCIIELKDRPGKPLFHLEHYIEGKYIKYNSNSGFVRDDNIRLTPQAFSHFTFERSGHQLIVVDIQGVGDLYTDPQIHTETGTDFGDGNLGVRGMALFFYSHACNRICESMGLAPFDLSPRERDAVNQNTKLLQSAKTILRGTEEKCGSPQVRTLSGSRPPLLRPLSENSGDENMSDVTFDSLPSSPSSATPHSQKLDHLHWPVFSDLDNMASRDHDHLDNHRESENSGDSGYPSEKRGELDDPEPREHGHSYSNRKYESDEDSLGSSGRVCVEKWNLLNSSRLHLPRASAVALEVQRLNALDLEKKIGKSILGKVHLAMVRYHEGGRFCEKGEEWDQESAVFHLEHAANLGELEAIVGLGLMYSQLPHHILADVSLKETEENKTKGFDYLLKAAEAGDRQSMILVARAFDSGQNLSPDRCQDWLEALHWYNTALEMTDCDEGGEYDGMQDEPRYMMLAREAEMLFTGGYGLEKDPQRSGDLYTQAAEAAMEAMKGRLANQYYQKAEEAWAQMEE
# [2] = target: Calcium/calmodulin-dependent protein kinase type 1 (Homo sapiens) (UniProt Q14012); assay: Inhibition of human CAMK1 assessed as residual activity at 1 uM relative to control
# [3] = target: T2, MAP kinase-activated protein kinase 5 (Homo sapiens) (UniProt Q8IW41); assay: Inhibition of human PRAK assessed as residual activity at 10 uM relative to control
# T2 sequence (whole entry): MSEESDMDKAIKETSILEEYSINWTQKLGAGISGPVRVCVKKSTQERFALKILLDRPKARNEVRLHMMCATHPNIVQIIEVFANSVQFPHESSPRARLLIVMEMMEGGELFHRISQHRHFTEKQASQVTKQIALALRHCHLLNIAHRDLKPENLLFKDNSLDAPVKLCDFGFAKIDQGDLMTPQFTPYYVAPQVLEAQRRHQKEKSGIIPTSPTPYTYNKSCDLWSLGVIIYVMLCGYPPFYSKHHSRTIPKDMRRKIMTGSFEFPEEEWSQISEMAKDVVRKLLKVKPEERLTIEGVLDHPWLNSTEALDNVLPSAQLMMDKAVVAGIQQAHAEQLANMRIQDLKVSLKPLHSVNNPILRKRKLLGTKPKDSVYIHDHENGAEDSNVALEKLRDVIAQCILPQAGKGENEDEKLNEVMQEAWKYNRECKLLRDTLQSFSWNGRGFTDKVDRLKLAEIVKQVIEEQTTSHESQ
# [4] = target: Rho-associated protein kinase 2 (Rattus norvegicus) (UniProt Q62868); assay: Inhibition of rat ROCK2 assessed as residual activity at 10 uM relative to control
# [5] = target: Ribosomal protein S6 kinase alpha-5 (Homo sapiens) (UniProt O75582); assay: Inhibition of human MSK1 assessed as residual activity at 10 uM relative to control
# [6] = target: Casein kinase II (Homo sapiens) (UniProt P67870+P68400+P19784); assay: Inhibition of human CK2 assessed as residual activity at 10 uM relative to control; assay type: protein-complex assay
# Rattus norvegicus = organism: Rattus norvegicus; assay: Inhibition of rat AMPK assessed as residual activity at 10 uM relative to control
# [7] = target: Myosin light chain kinase, smooth muscle (Homo sapiens) (UniProt Q15746); assay: Inhibition of human smMLCK assessed as residual activity at 1 uM relative to control
# [8] = target: Serine/threonine-protein kinase pim-1 (Homo sapiens) (UniProt P11309); assay: Inhibition of human PIM1 assessed as residual activity at 1 uM relative to control
# Oryctolagus cuniculus = organism: Oryctolagus cuniculus; assay: Inhibition of rabbit MKK1 assessed as residual activity at 1 uM relative to control
# [9] = target: Mitogen-activated protein kinase 9 (Homo sapiens) (UniProt P45984); assay: Inhibition of human JNK2 assessed as residual activity at 1 uM relative to control
# [10] = target: Dual specificity tyrosine-phosphorylation-regulated kinase 1A (Rattus norvegicus) (UniProt Q63470); assay: Inhibition of rat DYRK1alpha assessed as residual activity at 1 uM relative to control
# [11] = target: Casein kinase I isoform delta (Rattus norvegicus) (UniProt Q06486); assay: Inhibition of rat CK1delta assessed as residual activity at 1 uM relative to control
# [12] = target: Cyclin-dependent kinase 2 (Homo sapiens) (UniProt P24941); assay: Inhibition of human CDK2 assessed as residual activity at 1 uM relative to control
# [13] = target: T3, Serine/threonine-protein kinase TBK1 (Homo sapiens) (UniProt Q9UHD2); assay: Inhibition of human TBK1 assessed as residual activity at 10 uM relative to control
# T3 sequence (whole entry): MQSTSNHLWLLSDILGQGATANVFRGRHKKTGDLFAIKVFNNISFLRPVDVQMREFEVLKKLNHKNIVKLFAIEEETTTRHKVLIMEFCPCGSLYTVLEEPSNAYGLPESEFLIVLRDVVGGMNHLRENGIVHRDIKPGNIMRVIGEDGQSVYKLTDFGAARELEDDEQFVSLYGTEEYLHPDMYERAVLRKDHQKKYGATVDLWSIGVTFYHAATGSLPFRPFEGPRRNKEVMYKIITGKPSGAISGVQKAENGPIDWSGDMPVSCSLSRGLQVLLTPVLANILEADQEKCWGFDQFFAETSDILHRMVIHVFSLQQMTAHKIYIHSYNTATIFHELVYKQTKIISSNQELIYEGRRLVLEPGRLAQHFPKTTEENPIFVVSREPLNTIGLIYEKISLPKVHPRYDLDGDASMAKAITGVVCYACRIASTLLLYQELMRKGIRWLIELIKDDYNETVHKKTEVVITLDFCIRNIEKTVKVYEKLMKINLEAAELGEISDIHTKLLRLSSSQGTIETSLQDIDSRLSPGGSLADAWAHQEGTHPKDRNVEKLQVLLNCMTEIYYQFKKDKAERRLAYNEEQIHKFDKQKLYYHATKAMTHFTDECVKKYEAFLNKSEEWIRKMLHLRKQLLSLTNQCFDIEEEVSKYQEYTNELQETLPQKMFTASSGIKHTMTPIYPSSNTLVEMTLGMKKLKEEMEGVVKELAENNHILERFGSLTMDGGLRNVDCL
# [14] = target: Insulin-like growth factor 1 receptor (Homo sapiens) (UniProt P08069); assay: Inhibition of human IGF-1R assessed as residual activity at 10 uM relative to control
# [15] = target: Dual specificity tyrosine-phosphorylation-regulated kinase 1A (Rattus norvegicus) (UniProt Q63470); assay: Inhibition of rat DYRK1alpha assessed as residual activity at 10 uM relative to control
# Chain of Ribosomal protein S6 kinase alpha-5 (Homo sapiens) (O75582 whole entry, looked up): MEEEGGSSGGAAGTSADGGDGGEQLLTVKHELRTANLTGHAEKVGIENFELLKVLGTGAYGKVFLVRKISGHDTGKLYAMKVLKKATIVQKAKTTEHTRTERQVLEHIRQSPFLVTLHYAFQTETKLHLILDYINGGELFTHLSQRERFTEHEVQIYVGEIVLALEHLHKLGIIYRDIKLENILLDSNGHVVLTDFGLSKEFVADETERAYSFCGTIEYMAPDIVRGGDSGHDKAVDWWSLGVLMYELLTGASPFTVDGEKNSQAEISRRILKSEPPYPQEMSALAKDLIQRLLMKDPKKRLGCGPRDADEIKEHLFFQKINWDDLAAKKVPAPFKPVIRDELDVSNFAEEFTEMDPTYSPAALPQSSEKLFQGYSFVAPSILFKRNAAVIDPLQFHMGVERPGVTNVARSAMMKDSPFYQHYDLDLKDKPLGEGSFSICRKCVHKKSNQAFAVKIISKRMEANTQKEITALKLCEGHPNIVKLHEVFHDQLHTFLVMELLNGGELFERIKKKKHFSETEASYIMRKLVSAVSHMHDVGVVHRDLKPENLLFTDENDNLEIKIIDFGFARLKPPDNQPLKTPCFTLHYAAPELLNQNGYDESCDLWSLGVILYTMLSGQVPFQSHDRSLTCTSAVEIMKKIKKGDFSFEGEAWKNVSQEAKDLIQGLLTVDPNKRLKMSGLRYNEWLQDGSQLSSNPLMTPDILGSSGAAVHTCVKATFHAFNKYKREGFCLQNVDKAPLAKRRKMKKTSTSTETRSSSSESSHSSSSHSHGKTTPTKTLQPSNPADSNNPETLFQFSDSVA
# Chain of Serine/threonine-protein kinase pim-1 (Homo sapiens) (P11309 whole entry, looked up): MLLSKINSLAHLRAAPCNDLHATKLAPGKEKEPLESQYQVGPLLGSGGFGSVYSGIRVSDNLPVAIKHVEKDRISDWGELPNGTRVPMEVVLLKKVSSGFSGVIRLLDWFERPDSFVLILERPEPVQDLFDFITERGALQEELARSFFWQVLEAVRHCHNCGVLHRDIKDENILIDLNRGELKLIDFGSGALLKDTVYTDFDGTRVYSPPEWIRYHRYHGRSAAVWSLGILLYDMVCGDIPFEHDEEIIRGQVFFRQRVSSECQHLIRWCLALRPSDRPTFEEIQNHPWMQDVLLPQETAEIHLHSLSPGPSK
# Chain of Mitogen-activated protein kinase 9 (Homo sapiens) (P45984 whole entry, looked up): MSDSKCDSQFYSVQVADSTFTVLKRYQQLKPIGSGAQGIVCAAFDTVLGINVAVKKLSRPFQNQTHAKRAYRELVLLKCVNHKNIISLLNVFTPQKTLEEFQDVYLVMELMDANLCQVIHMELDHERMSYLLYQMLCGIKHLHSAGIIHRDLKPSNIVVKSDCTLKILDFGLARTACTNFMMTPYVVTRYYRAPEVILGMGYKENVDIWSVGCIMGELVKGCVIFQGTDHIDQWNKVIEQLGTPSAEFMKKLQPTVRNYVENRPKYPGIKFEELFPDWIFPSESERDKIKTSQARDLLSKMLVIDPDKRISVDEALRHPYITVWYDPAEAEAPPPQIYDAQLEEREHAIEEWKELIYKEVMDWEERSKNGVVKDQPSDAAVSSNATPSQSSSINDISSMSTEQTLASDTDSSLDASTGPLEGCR
# Chain of Rho-associated protein kinase 2 (Rattus norvegicus) (Q62868 whole entry, looked up): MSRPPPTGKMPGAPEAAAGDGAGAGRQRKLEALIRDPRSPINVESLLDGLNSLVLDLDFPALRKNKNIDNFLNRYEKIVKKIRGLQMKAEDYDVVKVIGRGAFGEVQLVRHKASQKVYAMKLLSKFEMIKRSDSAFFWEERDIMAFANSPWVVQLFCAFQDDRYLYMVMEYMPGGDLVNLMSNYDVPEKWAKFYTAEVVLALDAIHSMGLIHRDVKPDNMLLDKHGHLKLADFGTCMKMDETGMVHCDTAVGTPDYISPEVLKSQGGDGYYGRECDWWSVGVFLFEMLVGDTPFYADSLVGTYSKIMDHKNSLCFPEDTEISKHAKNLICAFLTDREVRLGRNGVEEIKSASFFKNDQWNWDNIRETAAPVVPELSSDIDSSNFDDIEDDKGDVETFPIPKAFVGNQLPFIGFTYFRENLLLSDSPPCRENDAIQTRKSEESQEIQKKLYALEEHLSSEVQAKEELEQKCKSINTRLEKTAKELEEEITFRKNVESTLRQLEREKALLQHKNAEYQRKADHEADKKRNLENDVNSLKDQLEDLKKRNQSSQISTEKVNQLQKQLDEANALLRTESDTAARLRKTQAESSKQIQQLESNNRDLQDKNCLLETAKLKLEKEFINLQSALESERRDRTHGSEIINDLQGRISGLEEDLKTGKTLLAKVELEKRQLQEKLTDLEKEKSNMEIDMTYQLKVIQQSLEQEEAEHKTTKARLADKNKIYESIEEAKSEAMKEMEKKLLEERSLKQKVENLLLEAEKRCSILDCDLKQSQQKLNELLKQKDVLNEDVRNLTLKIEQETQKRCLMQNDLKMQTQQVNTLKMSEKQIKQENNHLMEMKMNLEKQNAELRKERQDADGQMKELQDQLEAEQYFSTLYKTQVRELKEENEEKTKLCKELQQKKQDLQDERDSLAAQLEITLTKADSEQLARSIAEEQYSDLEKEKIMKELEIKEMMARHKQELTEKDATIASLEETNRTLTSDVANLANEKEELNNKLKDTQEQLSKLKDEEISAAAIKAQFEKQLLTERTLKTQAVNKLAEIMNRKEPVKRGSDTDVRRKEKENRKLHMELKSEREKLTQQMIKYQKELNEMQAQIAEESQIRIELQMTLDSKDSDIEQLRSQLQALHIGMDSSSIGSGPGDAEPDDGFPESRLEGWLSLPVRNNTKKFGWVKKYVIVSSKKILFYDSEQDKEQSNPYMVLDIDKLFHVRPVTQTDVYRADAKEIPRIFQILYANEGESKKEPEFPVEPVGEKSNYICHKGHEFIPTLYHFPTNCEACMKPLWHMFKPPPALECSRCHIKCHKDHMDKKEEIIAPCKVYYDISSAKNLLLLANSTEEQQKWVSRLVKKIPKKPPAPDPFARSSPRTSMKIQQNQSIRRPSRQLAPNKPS
# Chain of Calcium/calmodulin-dependent protein kinase type 1 (Homo sapiens) (Q14012 whole entry, looked up): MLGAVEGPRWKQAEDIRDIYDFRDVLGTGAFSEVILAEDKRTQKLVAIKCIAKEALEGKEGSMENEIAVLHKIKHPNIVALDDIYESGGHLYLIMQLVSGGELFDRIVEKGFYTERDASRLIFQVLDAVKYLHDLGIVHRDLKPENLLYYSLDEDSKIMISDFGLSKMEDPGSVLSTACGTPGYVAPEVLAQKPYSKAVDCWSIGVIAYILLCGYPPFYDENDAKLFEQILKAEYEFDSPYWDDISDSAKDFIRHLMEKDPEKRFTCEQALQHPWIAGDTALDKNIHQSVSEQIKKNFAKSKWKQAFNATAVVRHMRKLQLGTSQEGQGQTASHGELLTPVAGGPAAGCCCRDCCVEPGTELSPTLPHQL
# Chain of Casein kinase I isoform delta (Rattus norvegicus) (Q06486 whole entry, looked up, canonical isoform): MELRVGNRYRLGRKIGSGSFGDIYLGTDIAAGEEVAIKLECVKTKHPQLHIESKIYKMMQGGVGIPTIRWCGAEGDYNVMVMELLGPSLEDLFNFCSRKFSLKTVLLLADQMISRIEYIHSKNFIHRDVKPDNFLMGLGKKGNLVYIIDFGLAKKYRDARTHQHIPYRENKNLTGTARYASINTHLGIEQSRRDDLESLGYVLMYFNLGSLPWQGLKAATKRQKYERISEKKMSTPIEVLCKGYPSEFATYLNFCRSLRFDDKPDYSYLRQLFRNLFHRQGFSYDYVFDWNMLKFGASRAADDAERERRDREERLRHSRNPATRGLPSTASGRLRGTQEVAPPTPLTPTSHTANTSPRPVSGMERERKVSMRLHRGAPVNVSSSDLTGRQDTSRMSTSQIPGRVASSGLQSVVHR
# Chain of Insulin-like growth factor 1 receptor (Homo sapiens) (P08069 31-736 limits assumed): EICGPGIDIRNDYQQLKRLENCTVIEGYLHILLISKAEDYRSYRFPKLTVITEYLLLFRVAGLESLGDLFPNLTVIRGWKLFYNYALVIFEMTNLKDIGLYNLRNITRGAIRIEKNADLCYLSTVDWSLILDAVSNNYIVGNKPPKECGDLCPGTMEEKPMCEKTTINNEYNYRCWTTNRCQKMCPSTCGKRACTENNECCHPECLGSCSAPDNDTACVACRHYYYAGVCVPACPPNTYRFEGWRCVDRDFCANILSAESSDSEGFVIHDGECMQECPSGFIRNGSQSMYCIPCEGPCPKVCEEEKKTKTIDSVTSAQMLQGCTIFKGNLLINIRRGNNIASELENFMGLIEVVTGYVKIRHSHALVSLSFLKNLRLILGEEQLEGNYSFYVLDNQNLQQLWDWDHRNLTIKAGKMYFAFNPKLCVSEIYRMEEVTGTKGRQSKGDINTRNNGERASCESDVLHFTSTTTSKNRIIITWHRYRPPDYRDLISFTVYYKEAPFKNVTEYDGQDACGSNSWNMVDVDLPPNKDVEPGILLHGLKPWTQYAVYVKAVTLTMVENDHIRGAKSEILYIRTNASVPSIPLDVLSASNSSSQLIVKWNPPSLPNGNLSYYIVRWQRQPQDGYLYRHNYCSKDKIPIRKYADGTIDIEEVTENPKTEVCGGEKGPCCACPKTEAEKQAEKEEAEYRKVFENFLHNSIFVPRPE
# Chain of Insulin-like growth factor 1 receptor (Homo sapiens) (P08069 741-1367 limits assumed): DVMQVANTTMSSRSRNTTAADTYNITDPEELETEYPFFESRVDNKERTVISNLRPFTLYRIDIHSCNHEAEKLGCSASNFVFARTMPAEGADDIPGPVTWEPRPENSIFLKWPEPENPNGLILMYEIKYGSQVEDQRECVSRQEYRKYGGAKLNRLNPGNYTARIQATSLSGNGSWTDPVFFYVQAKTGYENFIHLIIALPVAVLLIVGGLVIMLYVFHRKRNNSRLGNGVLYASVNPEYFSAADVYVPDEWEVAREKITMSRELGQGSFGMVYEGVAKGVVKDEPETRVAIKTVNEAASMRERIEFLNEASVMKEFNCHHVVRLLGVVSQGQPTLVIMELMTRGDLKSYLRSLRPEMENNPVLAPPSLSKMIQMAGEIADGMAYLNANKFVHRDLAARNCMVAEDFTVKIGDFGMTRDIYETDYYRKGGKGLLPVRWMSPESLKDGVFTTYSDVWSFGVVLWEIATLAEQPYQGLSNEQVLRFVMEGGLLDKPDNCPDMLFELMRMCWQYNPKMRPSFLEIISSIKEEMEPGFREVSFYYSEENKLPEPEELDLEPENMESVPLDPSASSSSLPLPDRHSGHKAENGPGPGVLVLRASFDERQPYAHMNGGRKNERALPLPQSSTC
Activity [1],Activity [2],Activity [3],Activity [4],Activity [5],Activity [6],Activity (Rattus norvegicus),Activity [7],Activity [8],Activity (Oryctolagus cuniculus),Activity [9],Activity [10],Activity [11],Activity [12],Activity [13],Activity [14],Activity [15],SMILES
83.2%,103%,83.7%,92.3%,67.1%,107%,101%,80.4%,105%,95.1%,85.2%,91.9%,44.4%,92.2%,105%,92.5%,102%,CC(=O)Nc1nccc(-c2c(-c3ccccc3)noc2C)n1
106%,93%,88%,111%,78%,68%,105%,87%,89%,90%,99%,5%,73%,9%,70%,92%,2%,CCCC(=O)Nc1n[nH]c2ncc(-c3cccnc3)cc12
112%,111%,89.4%,58.7%,63.5%,80.5%,69.9%,72.9%,73.1%,75.7%,98.5%,76.2%,32.7%,76.7%,48.2%,12.5%,39.9%,CC(=O)Nc1cccc(-c2cnc3[nH]nc(C)c3c2)c1
